Test results taken from patent US8268998B2, “Pyrrolotriazine kinase inhibitors” (Bristol-Myers Squibb Company, priority 2006, dated 2012).
pIC50: −log10 of the molar value.

Legend:
[1] = target: T1, TrkB (Homo sapiens, UniProt Q16620); assay: TrkB tyrosine kinase inhibition assay (recombinant enzyme, polyGluTyr phosphorylation, 33P); format: biochemical; conditions: kinase domain of human TrkB (amino acids 526-838), substrate PGT 0.1 mg/ml, 30 uM ATP, 1 hour at 30° C.
T1 construct: The kinase domain of the human TrkB receptor (amino acids 526-838); His; purchased Invitrogen; host or cells: insect cells
T1 sequence (Q16620 510-822): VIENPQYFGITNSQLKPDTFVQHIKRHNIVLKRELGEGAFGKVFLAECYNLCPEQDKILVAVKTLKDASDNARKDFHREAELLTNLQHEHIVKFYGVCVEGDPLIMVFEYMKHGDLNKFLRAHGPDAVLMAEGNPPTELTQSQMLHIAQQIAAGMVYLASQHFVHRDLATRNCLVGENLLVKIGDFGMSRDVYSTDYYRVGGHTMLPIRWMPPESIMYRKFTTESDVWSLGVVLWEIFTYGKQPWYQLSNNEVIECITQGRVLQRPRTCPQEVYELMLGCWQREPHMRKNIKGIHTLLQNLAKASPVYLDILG
Experimental: The ability of compounds of the invention to inhibit tyrosine kinase activity of TrkB may be measured using a recombinant enzyme in an assay that measures the ability of compounds to inhibit the phosphorylation of the exogenous substrate, polyGluTyr (PGT, 4:1). The kinase domain of the human TrkB receptor (amino acids 526-838) is expressed in insect cells as a histidine (His)-fusion protein and is commercially available from Invitrogen™. The enzyme assay is performed in a 96-well plate. Test compounds are first dissolved in dimethylsulfoxide (DMSO) and then serially-diluted in a 96-well plate. The serially-diluted compounds are transferred to the 96-well assay plate so that the final concentration of DMSO in the enzyme assay is 1.64%. All assay components are diluted in phosphorylation buffer (20 mm MOPS, 10 mM MgCl2, 1 mM EDTA, 0.015% Brij-35, 0.1 mg/ml BSA, 0.0025% Beta-Mercaptoethanol). The recombinant enzyme is added to the assay plate containing test compound and the reaction is initiated with a substrate solution containing a final concentration of 0.1 mg/ml PGT, 30 uM ATP, and 0.008mCi/ml ^33P-gammaATP (3000 Ci/mmol). After a 1 hour incubation at 30° C., the reaction is terminated with 10% TCA and incubated at 4° C. for 1 hour. The reaction is filtered onto a Unifilter® GF/C™ filter plate that has been pre-soaked with 0.1M NaPyrophosphate. Microscint-20 is then added to the dried filter plate and the captured ^33P-phosphorylated PGT is quantitated on a microscintillation plate counter (TopCount•NXT™). Inhibition of the kinase enzymatic activity by the test compound is detected by a reduction in scintillation, and the concentration of compound that is required to inhibit the signal by 50% is reported as the IC50 value for the test compound.

[2] = target: T2, TrkA (Homo sapiens, UniProt P04629); assay: TrkA tyrosine kinase inhibition assay (recombinant enzyme, polyGluTyr phosphorylation, 33P); format: biochemical; conditions: kinase domain of human TrkA, substrate PGT 0.1 mg/ml, 30 uM ATP, 1 hour at 30° C.
T2 construct: The kinase domain of the human TrkA receptor is expressed in Sf9 insect cells as a histidine (His)-fusion protein; His; made in house; host or cells: Sf9 insect cells (baculovirus)
T2 sequence (P04629 510-781 limits assumed): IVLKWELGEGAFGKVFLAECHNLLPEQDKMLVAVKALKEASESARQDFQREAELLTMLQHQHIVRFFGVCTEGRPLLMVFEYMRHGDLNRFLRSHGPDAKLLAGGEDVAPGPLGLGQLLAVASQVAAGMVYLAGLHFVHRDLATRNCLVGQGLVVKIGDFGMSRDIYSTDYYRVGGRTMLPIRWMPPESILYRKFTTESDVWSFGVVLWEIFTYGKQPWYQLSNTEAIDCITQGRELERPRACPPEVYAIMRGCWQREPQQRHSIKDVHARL
Description: The ability of compounds of the invention to inhibit tyrosine kinase activity of TrkA may be measured using a recombinant enzyme in an assay that measures the ability of compounds to inhibit the phosphorylation of the exogenous substrate, polyGluTyr (PGT, 4:1). The kinase domain of the human TrkA receptor is expressed in Sf9 insect cells as a histidine (His)-fusion protein using a baculovirus expression system. The protein is purified from the lysates of these cells using an Ni-NTA affinity column. After the recombinant enzyme is purified, it is activated by incubation with cold ATP. The enzyme assay is performed in a 96-well plate. Test compounds are first dissolved in dimethylsulfoxide (DMSO) and then serially-diluted in a 96-well plate. The serially-diluted compounds are transferred to the 96-well assay plate so that the final concentration of DMSO in the enzyme assay is 1.64%. All assay components are diluted in phosphorylation buffer (20 mm MOPS, 10 mM MgCl2, 1 mM EDTA, 0.015% Brij-35, 0.1 mg/ml BSA, 0.0025% Beta-Mercaptoethanol). The recombinant enzyme is added to the assay plate containing test compound and the reaction is initiated with a substrate solution containing a final concentration of 0.1 mg/ml PGT, 30 uM ATP, and 0.008mCi/ml ^33P-gammaATP (3000Ci/mmol). After a 1 hour incubation at 30° C., the reaction is terminated with 10% TCA and incubated at 4° C. for 1 hour. The reaction is filtered onto a Unifilter® GF/C™ filter plate that has been presoaked with 0.1M NaPyrophosphate. Microscint-20 is then added to the dried filter plate and the captured ^33P-phosphorylated PGT is quantitated on a microscintillation plate counter (TopCount•NXT™). Inhibition of the kinase enzymatic activity by the test compound is detected by a reduction in scintillation, and the concentration of compound that is required to inhibit the signal by 50% is reported as the IC50 value for the test compound.

SMILES | pIC50 [1] | pIC50 [2]
C[C@H](Nc1nc(Nc2cc(C3CC3)[nH]n2)nn2cccc12)c1ccc(F)cc1 [Example 1, N^2-(5-cyclopropyl-1H-pyrazol-3-yl)-N^4-((1S)-1-(4-fluorophenyl)ethyl)pyrrolo[2,1-f][1,2,4]triazine-2,4-diamine] | 9.10 | 9.52
CCCC[C@H](C)Nc1nc(Nc2cc(C3CC3)[nH]n2)nn2cccc12 [Example 21, N^2-(5-cyclopropyl-1H-pyrazol-3-yl)-N^4-((1S)-1-methylpentyl)pyrrolo[2,1-ƒ][1,2,4]triazine-2,4-diamine] | 8.70 | 9.30
CC(C)[C@@H](CO)Nc1nc(Nc2cc(C3CC3)[nH]n2)nn2cccc12 [Example 24, (2S)-2-((2-((5-cyclopropyl-1H-pyrazol-3-yl)amino)pyrrolo[2,1-ƒ][1,2,4]triazin-4-yl)amino)-3-methyl-1-butanol] | 7.19 | 7.44
C[C@H](Nc1nc(Nc2cc(C3CC3)[nH]n2)nn2cccc12)C1CCCCC1 [Example 32, N^4-((1S)-1-cyclohexylethyl)-N^2-(5-cyclopropyl-1H-pyrazol-3-yl)pyrrolo[2,1-ƒ][1,2,4]triazine-2,4-diamine] | 8.52 | 8.70
